Test results taken from US12491170B2, “Stable treprostinil prodrugs” (United Therapeutics Corporation, priority 2020, dated 2025).
Where two headings read alike, the source gives them in different places.

Experiments:
[1] = Stability in liver microsomes, human; conditions: for AUC: human
[2] = Stability in cryopreserved hepatocytes, dog
[3] = rat
[4] = Stability in cryopreserved hepatocytes, human
[5] = Stability in liver microsomes, dog
[6] = Stability in liver microsomes, rat
[7] = dog
[8] = Stability in cryopreserved hepatocytes, rat
[9] = Stability in human subcutaneous skin homogenate; conditions: for AUC: human

What does the source list for `CCCCCC(CCC1C(O)CC2Cc3c(cccc3OCC(=O)O)CC21)OC(=O)COc1ccc(O)cc1` (stereo not shown) [LIV]?
Trep Concentration 0 min [1]: 0.908 µM; Trep Concentration 10 min [1]: 0.679 µM; Trep Concentration 20 min [1]: 0.564 µM; Trep Concentration 30 min [1]: 0.463 µM; Trep Concentration 60 min [1]: 0.338 µM; AUC [1]: 31.30 µmol·min/L; Trep Concentration (μM) 0 min [2]: 0.00351 µM; Trep Concentration (μM) 15 min [2]: 0.295 µM; Trep Concentration (μM) 30 min [2]: 0.273 µM; Trep Concentration (μM) 60 min [2]: 0.262 µM; Trep Concentration (μM) 120 min [2]: 0.262 µM; AUC ([2]; dog): 30.24 µmol·min/L; AUC [3]: 46.08 µmol·min/L; Trep Concentration (μM) 0 min [4]: 0.0156 µM; Trep Concentration (μM) 15 min [4]: 0.58 µM; Trep Concentration (μM) 30 min [4]: 0.47 µM; Trep Concentration (μM) 60 min [4]: 0.475 µM; Trep Concentration (μM) 120 min [4]: 0.461 µM; AUC ([4]; human): 54.60 µmol·min/L; Trep Concentration 0 min [5]: 0.307 µM; Trep Concentration 10 min [5]: 0.544 µM; Trep Concentration 20 min [5]: 0.678 µM; Trep Concentration 30 min [5]: 0.729 µM; Trep Concentration 60 min [5]: 0.777 µM; Trep Concentration 0 min [6]: 0.849 µM; Trep Concentration 10 min [6]: 0.784 µM; Trep Concentration 20 min [6]: 0.765 µM; Trep Concentration 30 min [6]: 0.709 µM; Trep Concentration 60 min [6]: 0.811 µM; AUC [7]: 39.99 µmol·min/L; Trep Concentration (μM) 0 min [8]: 0.0862 µM; Trep Concentration (μM) 15 min [8]: 0.512 µM; Trep Concentration (μM) 30 min [8]: 0.426 µM; Trep Concentration (μM) 60 min [8]: 0.441 µM; Trep Concentration (μM) 120 min [8]: 0.455 µM; AUC ([8]; rat): 51.41 µmol·min/L; Trep Concentration 0 min [9]: 0 µM; Trep Concentration 30 min [9]: 0.486 µM; Trep Concentration 60 min [9]: 0.694 µM; Trep Concentration 120 min [9]: 0.848 µM; AUC [9]: 71.25 µmol·min/L

For `CCCCC[C@@H](CC[C@@H]1[C@H]2Cc3cccc(OCC(=O)O)c3C[C@H]2C[C@H]1O)OC(=O)[C@@H](N)C(C)C` [XXIX], which “Trep Concentration 0 min” value [1] is on record?
Its value is 0.00482 µM.

What about the “Trep Concentration 20 min” value [1] of the same compound?
The value was 0.0168 µM.

And the “Trep Concentration 30 min” value [1]?
The value was 0.0173 µM.

What about the “Trep Concentration 60 min” value [1] of the same compound?
The value was 0.0265 µM.

What about the AUC [1] of the same compound?
The AUC was 1.05 µmol·min/L.

What about the AUC [3] of the same compound?
The AUC was 0.56 µmol·min/L.

And the “Trep Concentration 0 min” value [5]?
The value was 0 µM.

What about the “Trep Concentration 10 min” value [5] of the same compound?
Its value is 0.012 µM.

What about the “Trep Concentration 20 min” value [5] of the same compound?
Its value is 0.0177 µM.

What about the “Trep Concentration 30 min” value [5] of the same compound?
Its value is 0.025 µM.

What about the “Trep Concentration 60 min” value [5] of the same compound?
The value was 0.0334 µM.

What about the “Trep Concentration 0 min” value [6] of the same compound?
Its value is 0 µM.

What about the “Trep Concentration 10 min” value [6] of the same compound?
The value was 0.00463 µM.

And the “Trep Concentration 20 min” value [6]?
Its value is 0.00443 µM.

What about the “Trep Concentration 30 min” value [6] of the same compound?
The value was 0.0102 µM.

And the “Trep Concentration 60 min” value [6]?
Its value is 0.0178 µM.

And the AUC [7]?
Its AUC is 1.30 µmol·min/L.

What about the “Trep Concentration 0 min” value [9] of the same compound?
Its value is 0 µM.

What about the “Trep Concentration 30 min” value [9] of the same compound?
The value was 0.0333 µM.

What about the “Trep Concentration 60 min” value [9] of the same compound?
The value was 0.0488 µM.

And the “Trep Concentration 120 min” value [9]?
The value was 0.0759 µM.

What about the AUC [9] of the same compound?
Its AUC is 5.47 µmol·min/L.

For `CCCCCC(CCC1C(O)CC2Cc3c(cccc3OCC(=O)O)CC21)OC(=O)OCC(=O)O` (stereo not shown) [XXXIX], which “Trep Concentration 0 min” value [1] is on record?
Its value is 0 µM.

And the “Trep Concentration 10 min” value [1]?
Its value is 0 µM.

What about the “Trep Concentration 20 min” value [1] of the same compound?
Its value is 0 µM.

And the “Trep Concentration 30 min” value [1]?
Its value is 0 µM.

And the “Trep Concentration 60 min” value [1]?
The value was 0 µM.

And the AUC [1]?
The AUC was 0.00 µmol·min/L.

And the AUC [3]?
The AUC was 0.00 µmol·min/L.

And the “Trep Concentration 0 min” value [5]?
Its value is 0 µM.

And the “Trep Concentration 10 min” value [5]?
The value was 0 µM.

What about the “Trep Concentration 20 min” value [5] of the same compound?
Its value is 0 µM.

What about the “Trep Concentration 30 min” value [5] of the same compound?
The value was 0 µM.

What about the “Trep Concentration 60 min” value [5] of the same compound?
Its value is 0 µM.

And the “Trep Concentration 0 min” value [6]?
Its value is 0 µM.

And the “Trep Concentration 10 min” value [6]?
Its value is 0 µM.

What about the “Trep Concentration 20 min” value [6] of the same compound?
The value was 0 µM.

What about the “Trep Concentration 30 min” value [6] of the same compound?
The value was 0 µM.

What about the “Trep Concentration 60 min” value [6] of the same compound?
The value was 0 µM.

What about the AUC [7] of the same compound?
Its AUC is 0.00 µmol·min/L.

And the “Trep Concentration 0 min” value [9]?
Its value is 0 µM.

And the “Trep Concentration 30 min” value [9]?
Its value is 0 µM.

What about the “Trep Concentration 60 min” value [9] of the same compound?
Its value is 0 µM.

What about the “Trep Concentration 120 min” value [9] of the same compound?
The value was 0 µM.

What about the AUC [9] of the same compound?
The AUC was 0.00 µmol·min/L.

Which “Trep Concentration 0 min” value [1] does the source give for `CCCCCC(CCC1C(O)CC2Cc3c(cccc3OCC(=O)O)CC21)OC(=O)C(C)N` (stereo not shown) [XXXI] here?
The value was 0.0531 µM.

What about the “Trep Concentration 10 min” value [1] of the same compound?
The value was 0.193 µM.

And the “Trep Concentration 20 min” value [1]?
The value was 0.31 µM.

And the “Trep Concentration 30 min” value [1]?
Its value is 0.327 µM.

And the “Trep Concentration 60 min” value [1]?
Its value is 0.383 µM.

What about the AUC [1] of the same compound?
Its AUC is 17.58 µmol·min/L.

What about the AUC [3] of the same compound?
The AUC was 3.09 µmol·min/L.

What about the “Trep Concentration 0 min” value [5] of the same compound?
Its value is 0.134 µM.

And the “Trep Concentration 10 min” value [5]?
Its value is 0.479 µM.

And the “Trep Concentration 20 min” value [5]?
The value was 0.63 µM.

And the “Trep Concentration 30 min” value [5]?
Its value is 0.674 µM.

And the “Trep Concentration 60 min” value [5]?
Its value is 0.694 µM.

And the “Trep Concentration 0 min” value [6]?
Its value is 0.00504 µM.

What about the “Trep Concentration 10 min” value [6] of the same compound?
The value was 0.0179 µM.

And the “Trep Concentration 20 min” value [6]?
Its value is 0.0351 µM.

What about the “Trep Concentration 30 min” value [6] of the same compound?
Its value is 0.0465 µM.

What about the “Trep Concentration 60 min” value [6] of the same compound?
Its value is 0.107 µM.

What about the AUC [7] of the same compound?
The AUC was 35.65 µmol·min/L.

And the “Trep Concentration 0 min” value [9]?
The value was 0 µM.

What about the “Trep Concentration 60 min” value [9] of the same compound?
The value was 0.204 µM.

And the “Trep Concentration 120 min” value [9]?
The value was 0.323 µM.

And the AUC [9]?
The AUC was 22.23 µmol·min/L.

What does the source list for `CCCCCC(CCC1C(O)CC2Cc3c(cccc3OCC(=O)O)CC21)OC(=O)NCC(=O)O` (stereo not shown) [XXXVIII]?
Trep Concentration 0 min [1]: 0 µM; Trep Concentration 10 min [1]: 0 µM; Trep Concentration 20 min [1]: 0 µM; Trep Concentration 30 min [1]: 0 µM; Trep Concentration 60 min [1]: 0 µM; AUC [1]: 0.00 µmol·min/L; AUC [3]: 0.00 µmol·min/L; Trep Concentration 0 min [5]: 0 µM; Trep Concentration 10 min [5]: 0 µM; Trep Concentration 20 min [5]: 0 µM; Trep Concentration 30 min [5]: 0 µM; Trep Concentration 60 min [5]: 0 µM; Trep Concentration 0 min [6]: 0 µM; Trep Concentration 10 min [6]: 0 µM; Trep Concentration 20 min [6]: 0 µM; Trep Concentration 30 min [6]: 0 µM; Trep Concentration 60 min [6]: 0 µM; AUC [7]: 0.00 µmol·min/L; Trep Concentration 0 min [9]: 0 µM; Trep Concentration 30 min [9]: 0 µM; Trep Concentration 60 min [9]: 0 µM; Trep Concentration 120 min [9]: 0 µM; AUC [9]: 0.00 µmol·min/L

For `CCCCCC(CCC1C(O)CC2Cc3c(cccc3OCC(=O)O)CC21)OC(=O)CN` (stereo not shown) [XXX], which “Trep Concentration 0 min” value [1] is on record?
Its value is 0.036 µM.

And the “Trep Concentration 10 min” value [1]?
Its value is 0.132 µM.

What about the “Trep Concentration 20 min” value [1] of the same compound?
The value was 0.227 µM.

And the “Trep Concentration 30 min” value [1]?
The value was 0.31 µM.

What about the “Trep Concentration 60 min” value [1] of the same compound?
Its value is 0.429 µM.

And the AUC [1]?
Its AUC is 16.41 µmol·min/L.

And the AUC [3]?
The AUC was 6.86 µmol·min/L.

What about the “Trep Concentration 0 min” value [5] of the same compound?
The value was 0.0977 µM.

What about the “Trep Concentration 10 min” value [5] of the same compound?
The value was 0.347 µM.

What about the “Trep Concentration 20 min” value [5] of the same compound?
The value was 0.495 µM.

And the “Trep Concentration 30 min” value [5]?
The value was 0.562 µM.

What about the “Trep Concentration 60 min” value [5] of the same compound?
Its value is 0.664 µM.

And the “Trep Concentration 0 min” value [6]?
The value was 0.011 µM.

And the “Trep Concentration 10 min” value [6]?
The value was 0.0524 µM.

And the “Trep Concentration 20 min” value [6]?
The value was 0.0901 µM.

And the “Trep Concentration 30 min” value [6]?
The value was 0.122 µM.

What about the “Trep Concentration 60 min” value [6] of the same compound?
Its value is 0.196 µM.

And the AUC [7]?
The AUC was 30.11 µmol·min/L.

What about the “Trep Concentration 0 min” value [9] of the same compound?
The value was 0 µM.

What about the “Trep Concentration 30 min” value [9] of the same compound?
Its value is 0.206 µM.

What about the “Trep Concentration 60 min” value [9] of the same compound?
The value was 0.369 µM.

And the “Trep Concentration 120 min” value [9]?
Its value is 0.533 µM.

And the AUC [9]?
The AUC was 38.78 µmol·min/L.
